# Laboratory results published in PMC12156185, “Synthesis of Cyclic Hexapeptides via the Hydrazide Method and Evaluation of Their Antibacterial Activities” (Molecules, 2025).
# Where a SMILES comes first, the peptide text is derived from it.
# Columns and labels:
# [1] = Head-to-tail amide via hydrazide-based intramolecular NCL: C-terminal peptide hydrazide + NaNO2 (10 eq, pH 3, -15 °C) to acyl azide, then MPAA (40 eq) thioester, pH 6.3-6.5 (Fig 2: 6.7-7), S-to-N acyl shift onto N-terminal Cys; TCEP work-up; conditions: the molecule shown is the open-chain precursor; 18-membered ring; 0.2 M sodium phosphate, 6 M guanidine HCl (aq); 0.75 mM; 25.0 °C
# [2] = test system: Candida tropicalis (BNCC 340288); format: cell-based; conditions: BNCC 340288, 24 h
# Method: (§1) The antimicrobial and antifungal activities of 11 cyclic hexapeptides (Cy-f1 to Cy-f11) were evaluated by determining their minimum inhibitory concentrations (MICs) against a panel of pathogens (Figure 4). These pathogens included Gram-negative bacteria (Escherichia coli, Klebsiella pneumoniae, Pseudomonas aeruginosa), Gram-positive bacteria (Staphylococcus aureus, Bacillus subtilis, Staphylococcus aureus [MRSA], […]), and fungi (Candida tropicalis, Cryptococcus neoformans).
# (§2) The antibacterial activity of peptide analogs was tested against different bacterial strains, all purified cyclotides underwent antibacterial testing against Gram-positive bacterium Staphylococcus aureus (BNCC 186335), Bacillus subtilis (BNCC 109047), and Staphylococcus aureus (MRSA, BNCC 330041), Gram-negative bacteria, including Acinetobacter baumannii (BNCC 337173), Pseudomonas aeruginosa (BNCC 125486), and […]. Fungi included Candida parapsilosis (BNCC 336515) and Candida tropicalis (BNCC 340288). All the above strains are from the Henan Provincial Engineering Research Center of Industrial Microorganisms (Henan, China). Escherichia coli (ATCC 25922) and Klebsiella pneumoniae (CMCC(B) 46117) were sourced from Guangzhou HuanKai Microbial Technology Co., Ltd. (Guangzhou, China). The peptides’ MIC was determined using the Clinical and Laboratory Standards Institute broth dilution procedure with slight modifications.
# Candida tropicalis was cultured on Sabourad Dextrose Agar (SDA). A single colony was inoculated in YM broth medium and grown overnight at 37 °C while shaking. Peptides were diluted in SDB media by two-fold dilution, resulting in 100 µL of medium containing increasing concentrations. The overnight culture (turbidity at OD600 = 1) was 1000× diluted in SDB. Then 100 µL of this suspension was added to each well, resulting in a final 200 µL suspension containing 2–4 × 10^5 CFU/mL. The plate was incubated at 37 °C for 24 h.
# (§3) Each test was performed at least three times. MIC (minimum inhibitory concentration) values were determined as the concentrations of peptides that caused >99% inhibition of bacterial growth.
# [3] = test system: Cryptococcus neoformans (BNCC 225501); format: cell-based; conditions: BNCC 225501, 48 h
# Method: as §1, §2, §3
# [4] = test system: Acinetobacter baumannii (BNCC 337173); format: cell-based
# Method: as §1, §2
# (§4) Colonies of these bacterial strains were grown in respective agar media, then inoculated in Mueller Hinton (MH) broth and incubated at 37 °C overnight. The peptide solutions were first diluted 1 in 100 (from the stock solution at 20 mM) and then further two-fold dilution in MH broth in a sterile 96-well plate was performed, resulting in 100 µL of broth containing increasing concentrations. Bacteria in their exponential growth phase were diluted in MH broth, and 100 µL of this suspension was added in each well. […] Then, these plates were incubated at 37 °C for 20–22 h.
# as §3
# [5] = test system: Klebsiella pneumoniae (CMCC(B) 46117); format: cell-based
# Method: as §1, §2, §4, §3
# [6] = test system: Staphylococcus aureus (MRSA, BNCC 330041); format: cell-based
# Method: as §1, §2, §4, §3
# [7] = test system: Bacillus subtilis (BNCC 109047); format: cell-based
# Method: as §1, §2, §4, §3
# [8] = test system: Escherichia coli (ATCC 25922); format: cell-based
# Method: as §1, §2, §4, §3
# [9] = test system: Staphylococcus aureus (BNCC 186335); format: cell-based
# Method: as §1, §2, §4, §3
# [10] = test system: Pseudomonas aeruginosa (BNCC 125486); format: cell-based
# Method: as §1, §2, §4, §3
Compound,"ring closure, product found (1=cyclised, 0=failed) [1]",MIC against C. tropicalis [2],MIC against C. neoformans [3],MIC against A. baumannii [4],MIC against K. pneumoniae [5],MIC against MRSA [6],MIC against B. subtilis [7],MIC against E. coli [8],MIC against S. aureus [9],MIC against P. aeruginosa [10]
CC[C@H](C)[C@H](NC(=O)[C@@H]1CCCN1C(=O)[C@H](CCCCN)NC(=O)[C@H](CCCNC(=N)N)NC(=O)[C@@H](N)CS)C(=O)N[C@H](C(=O)NN)C(C)C [H-Cys-Arg-Lys-Pro-Ile-Val-NHNH2],1,,,,,,,,,
CC[C@H](C)[C@H](NC(=O)[C@@H](NC(=O)[C@@H]1CCCN1C(=O)[C@H](CCCNC(=N)N)NC(=O)[C@@H](NC(=O)[C@@H](N)CS)[C@@H](C)CC)[C@@H](C)CC)C(=O)NN [H-Cys-Ile-Arg-Pro-Ile-Ile-NHNH2],1,,,,,,,,,
CC[C@H](C)[C@H](NC(=O)[C@@H](NC(=O)[C@@H]1CCCN1C(=O)[C@H](CCCCN)NC(=O)[C@H](CCCNC(=N)N)NC(=O)[C@@H](N)CS)[C@@H](C)CC)C(=O)NN [H-Cys-Arg-Lys-Pro-Ile-Ile-NHNH2],1,,,,,,,,,
CC[C@H](C)[C@@H]1NC(=O)[C@H](CS)NC(=O)[C@H]([C@@H](C)CC)NC(=O)[C@H]([C@@H](C)CC)NC(=O)[C@@H]2CCCN2C(=O)[C@H](CCCNC(=N)N)NC1=O [Cy-f11] (cyclo(CIRPII)),,64 µM,128 µM,> 200 µM,64 µM,> 200 µM,64 µM,> 200 µM,> 200 µM,> 200 µM
CC[C@H](C)[C@@H]1NC(=O)[C@H](CCCCN)NC(=O)[C@H](CC(C)C)NC(=O)[C@H](CCCCN)NC(=O)[C@H](CS)NC(=O)[C@H](Cc2ccccc2)NC1=O [Cy-f3] (cyclo(CKLKIF)),,32 µM,8 µM,128 µM,64 µM,32 µM,32 µM,64 µM,16 µM,128 µM
CC[C@H](C)[C@H](NC(=O)[C@@H](NC(=O)[C@H](CCCNC(=N)N)NC(=O)[C@@H](N)CS)C(C)C)C(=O)N[C@H](C(=O)N[C@@H](CCCNC(=N)N)C(=O)NN)[C@@H](C)CC [H-Cys-Arg-Val-Ile-Ile-Arg-NHNH2],1,,,,,,,,,
CC[C@H](C)[C@@H]1NC(=O)[C@H](CS)NC(=O)[C@H](CC(C)C)NC(=O)[C@H]([C@@H](C)CC)NC(=O)[C@@H]2CCCN2C(=O)[C@H](CCCNC(=N)N)NC1=O [Cy-f9] (cyclo(CIRPIL)),,> 200 µM,> 200 µM,> 200 µM,> 200 µM,> 200 µM,> 200 µM,> 200 µM,> 200 µM,> 200 µM
CC[C@H](C)[C@H](NC(=O)[C@H](CCCNC(=N)N)NC(=O)[C@@H](N)CS)C(=O)N[C@H](C(=O)N[C@H](C(=O)N[C@@H](CCCNC(=N)N)C(=O)NN)C(C)C)C(C)C [H-Cys-Arg-Ile-Val-Val-Arg-NHNH2],1,,,,,,,,,
CC(C)C[C@H](NC(=O)[C@@H](NC(=O)[C@@H]1CCCN1C(=O)[C@H](CCCCN)NC(=O)[C@H](CCCNC(=N)N)NC(=O)[C@@H](N)CS)C(C)C)C(=O)NN [H-Cys-Arg-Lys-Pro-Val-Leu-NHNH2],1,,,,,,,,,
CC[C@H](C)[C@H](NC(=O)[C@H](CCCCN)NC(=O)[C@H](CC(C)C)NC(=O)[C@H](CCCNC(=N)N)NC(=O)[C@@H](N)CS)C(=O)N[C@@H](Cc1ccccc1)C(=O)NN [H-Cys-Arg-Leu-Lys-Ile-Phe-NHNH2],1,,,,,,,,,
CC[C@H](C)[C@@H]1NC(=O)[C@H]([C@@H](C)CC)NC(=O)[C@@H]2CCCN2C(=O)[C@H](CCCCN)NC(=O)[C@H](CCCNC(=N)N)NC(=O)[C@H](CS)NC1=O [Cy-f5] (cyclo(CRKPII)),,64 µM,32 µM,,,,,128 µM,16 µM,128 µM
CC[C@H](C)[C@@H]1NC(=O)[C@@H]2CCCN2C(=O)[C@H](CCCCN)NC(=O)[C@H](CCCNC(=N)N)NC(=O)[C@H](CS)NC(=O)[C@H](C(C)C)NC1=O [Cy-f6] (cyclo(CRKPIV)),,> 200 µM,> 200 µM,> 200 µM,> 200 µM,> 200 µM,> 200 µM,> 200 µM,> 200 µM,> 200 µM
CC[C@H](C)[C@@H]1NC(=O)[C@H](C(C)C)NC(=O)[C@H](CCCNC(=N)N)NC(=O)[C@H](CS)NC(=O)[C@H](CCCNC(=N)N)NC(=O)[C@H]([C@@H](C)CC)NC1=O [Cy-f10] (cyclo(CRVIIR)),,128 µM,16 µM,,,,,,8 µM,128 µM
CC(C)C[C@@H]1NC(=O)[C@H](C(C)C)NC(=O)[C@@H]2CCCN2C(=O)[C@H](CCCCN)NC(=O)[C@H](CCCNC(=N)N)NC(=O)[C@H](CS)NC1=O [Cy-f7] (cyclo(CRKPVL)),,32 µM,16 µM,,,,,128 µM,32 µM,128 µM
CC(C)C[C@H](NC(=O)[C@H](CCCCN)NC(=O)[C@@H](N)CS)C(=O)N[C@@H](CCCNC(=N)N)C(=O)N[C@@H](Cc1c[nH]c2ccccc12)C(=O)N[C@@H](Cc1ccccc1)C(=O)NN [H-Cys-Lys-Leu-Arg-Trp-Phe-NHNH2],1,,,,,,,,,
CC[C@H](C)[C@H](NC(=O)[C@H](CCCCN)NC(=O)[C@H](CC(C)C)NC(=O)[C@H](CCCCN)NC(=O)[C@@H](N)CS)C(=O)N[C@@H](Cc1ccccc1)C(=O)NN [H-Cys-Lys-Leu-Lys-Ile-Phe-NHNH2],1,,,,,,,,,
CC[C@H](C)[C@H](NC(=O)[C@H](CCCCN)NC(=O)[C@H](CC(C)C)NC(=O)[C@H](CC(C)C)NC(=O)[C@@H](N)CS)C(=O)N[C@@H](Cc1ccccc1)C(=O)NN [H-Cys-Leu-Leu-Lys-Ile-Phe-NHNH2],1,,,,,,,,,
CC[C@H](C)[C@@H]1NC(=O)[C@H](CCCNC(=N)N)NC(=O)[C@H](CS)NC(=O)[C@H](CCCNC(=N)N)NC(=O)[C@H](C(C)C)NC(=O)[C@H](C(C)C)NC1=O [Cy-f8] (cyclo(CRIVVR)),,16 µM,32 µM,,32 µM,,8 µM,16 µM,8 µM,
CC[C@H](C)[C@H](NC(=O)[C@@H](N)CS)C(=O)N[C@@H](CCCNC(=N)N)C(=O)N1CCC[C@H]1C(=O)N[C@H](C(=O)N[C@@H](CC(C)C)C(=O)NN)[C@@H](C)CC [H-Cys-Ile-Arg-Pro-Ile-Leu-NHNH2],1,,,,,,,,,
